Legend:
HIS-TGFβR2 WT = HIS-TGFβR2 WT (Homo sapiens, UniProt P37173); assay: HTRF probe-displacement assay, HIS-TGFβR2 WT; type: binding
HIS-TGFβR1 T204D = target: T1, HIS-TGFβR1 T204D (Homo sapiens, UniProt P36897, T204D); assay: HTRF probe-displacement assay, HIS-TGFβR1 T204D; type: binding; details: read-out: TGFβR1 (μM) IC50
T1 sequence (P36897 34-503 T204D): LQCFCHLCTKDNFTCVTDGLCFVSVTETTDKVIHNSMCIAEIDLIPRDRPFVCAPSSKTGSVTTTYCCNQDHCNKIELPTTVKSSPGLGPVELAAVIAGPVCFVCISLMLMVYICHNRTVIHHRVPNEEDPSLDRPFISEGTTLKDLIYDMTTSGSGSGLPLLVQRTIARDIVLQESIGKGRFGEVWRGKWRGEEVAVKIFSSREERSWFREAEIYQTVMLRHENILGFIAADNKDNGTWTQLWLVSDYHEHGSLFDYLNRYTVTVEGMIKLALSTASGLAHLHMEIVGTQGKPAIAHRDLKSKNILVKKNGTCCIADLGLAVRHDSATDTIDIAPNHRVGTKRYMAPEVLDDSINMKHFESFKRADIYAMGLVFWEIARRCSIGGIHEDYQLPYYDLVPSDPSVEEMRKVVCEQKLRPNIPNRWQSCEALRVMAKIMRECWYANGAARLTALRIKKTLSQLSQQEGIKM

Sequence of HIS-TGFβR2 WT (P37173 23-567): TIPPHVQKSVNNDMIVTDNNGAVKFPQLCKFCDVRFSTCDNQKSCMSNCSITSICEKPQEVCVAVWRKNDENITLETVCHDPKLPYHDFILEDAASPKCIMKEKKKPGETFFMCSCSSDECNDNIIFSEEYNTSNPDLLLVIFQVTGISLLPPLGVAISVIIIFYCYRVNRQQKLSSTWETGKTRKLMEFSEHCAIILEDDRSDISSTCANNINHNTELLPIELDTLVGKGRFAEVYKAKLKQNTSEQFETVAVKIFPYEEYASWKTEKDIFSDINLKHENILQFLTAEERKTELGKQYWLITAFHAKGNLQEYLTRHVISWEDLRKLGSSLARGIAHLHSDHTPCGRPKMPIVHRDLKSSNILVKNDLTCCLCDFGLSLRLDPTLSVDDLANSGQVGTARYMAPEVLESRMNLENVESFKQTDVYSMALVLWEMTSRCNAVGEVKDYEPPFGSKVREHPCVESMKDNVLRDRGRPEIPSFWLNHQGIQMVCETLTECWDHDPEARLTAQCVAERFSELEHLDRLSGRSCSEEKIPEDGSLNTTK

| Compound | IC50 (HIS-TGFβR2 WT) [µM] | IC50 (HIS-TGFβR1 T204D) [µM] |
| --- | --- | --- |
| CC(=O)Nc1cc(-c2[nH]c3cc(F)cnc3c2-c2nc(C)cs2)ccn1 [Example 225, N-(4-(6-Fluoro-3-(4-methylthiazol-2-yl)-1H-pyrrolo[3,2-b]pyridin-2-yl)pyridin-2-yl)acetamide] | 0.057 | 0.0007 |
| CC(=O)Nc1cc(-c2[nH]c3cc(F)cnc3c2-c2nc(C#N)cs2)ccn1 [Example 226, N-(4-(3-(4-Cyanothiazol-2-yl)-6-fluoro-1H-pyrrolo[3,2-b]pyridin-2-yl)pyridin-2-yl)acetamide] | 1.55 | 0.0041 |
| COc1cnc2c(-c3nc(C(F)F)cs3)c(-c3ccnc(NC(C)=O)c3)[nH]c2c1 [Example 227, N-(4-(3-(4-(Difluoromethyl)thiazol-2-yl)-6-methoxy-1H-pyrrolo[3,2-b]pyridin-2-yl)pyridin-2-yl)acetamide] | 0.725 | 0.0006 |
| COc1cnc2c(-c3nc(C(F)(F)F)cs3)c(-c3ccnc(NC(C)=O)c3)[nH]c2c1 [Example 229, N-(4-(6-Methoxy-3-(4-(trifluoromethyl)thiazol-2-yl)-1H-pyrrolo[3,2-b]pyridin-2-yl)pyridin-2-yl)acetamide] | 10.9 | 0.0014 |
| COc1ccc(-c2c(-c3ccnc(NC(C)=O)c3)[nH]c3c(C(C)O)ccnc23)cn1 (stereo not shown) [Example 230, N-(4-(7-(1-Hydroxyethyl)-3-(6-methoxypyridin-3-yl)-1H-pyrrolo[3,2-b]pyridin-2-yl)pyridin-2-yl)acetamide] | 0.037 | 0.0024 |
| CC(=O)Nc1cc(-c2[nH]c3c(C(C)O)ccnc3c2-c2nc(C(F)(F)F)cs2)ccn1 (stereo not shown) [Example 231, N-(4-(7-(1-Hydroxyethyl)-3-(4-(trifluoromethyl)thiazol-2-yl)-1H-pyrrolo[3,2-b]pyridin-2-yl)pyridin-2-yl)acetamide] | 9.11 | 0.001 |
| CC(=O)Nc1cc(-c2[nH]c3c(C(C)O)ccnc3c2-c2nc(C)cs2)ccn1 (stereo not shown) [Example 232, N-(4-(7-(1-Hydroxyethyl)-3-(4-methylthiazol-2-yl)-1H-pyrrolo[3,2-b]pyridin-2-yl)pyridin-2-yl)acetamide] | 0.115 | 0.003 |
| CC(=O)Nc1cc(-c2[nH]c3c(C(C)F)ccnc3c2-c2cccc(C(F)F)n2)ccn1 (stereo not shown) [Example 233, N-(4-(3-(6-(Difluoromethyl)pyridin-2-yl)-7-(1-fluoroethyl)-1H-pyrrolo[3,2-b]pyridin-2-yl)pyridin-2-yl)acetamide] | 4.06 | 0.0014 |
| COc1ccnc2c(-c3nc(C)cs3)c(-c3ccnc(NC(C)=O)c3)[nH]c12 [Example 234, N-(4-(7-Methoxy-3-(4-methylthiazol-2-yl)-1H-pyrrolo[3,2-b]pyridin-2-yl)pyridin-2-yl)acetamide] | 0.572 | 0.0016 |
| COc1ccc(-c2c(-c3ccnc(NC(=O)CN4CCN(CCO)CC4)c3)[nH]c3cc(Cl)cnc23)cn1 [Example 235, N-(4-(6-Chloro-3-(6-methoxypyridin-3-yl)-1H-pyrrolo[3,2-b]pyridin-2-yl)pyridin-2-yl)-2-(4-(2-hydroxyethyl)piperazin-1-yl)acetamide] | 0.176 | 0.001 |
| COc1ccc(-c2c(-c3ccnc(NC(C)=O)c3)[nH]c3cccnc23)nc1C [Example 237, N-(4-(3-(5-Methoxy-6-methylpyridin-2-yl)-1H-pyrrolo[3,2-b]pyridin-2-yl)pyridin-2-yl)acetamide] | > 15 | 0.111 |
| COc1ccc(-c2c(-c3ccnc(NC(=O)CN4CCN(C)CC4)c3)[nH]c3cc(Cl)cnc23)nc1C [Example 238, N-(4-(6-Chloro-3-(5-methoxy-6-methylpyridin-2-yl)-1H-pyrrolo[3,2-b]pyridin-2-yl)pyridin-2-yl)-2-(4-methylpiperazin-1-yl)acetamide] | > 15 | 0.0882 |
| COc1cnc(-c2c(-c3ccnc(NC(C)=O)c3)[nH]c3cc(Cl)cnc23)s1 [Example 239, N-(4-(6-Chloro-3-(5-methoxythiazol-2-yl)-1H-pyrrolo[3,2-b]pyridin-2-yl)pyridin-2-yl)acetamide] | 3.28 | 0.0746 |
| CC(=O)Nc1cc(-c2[nH]c3c(C#N)ccnc3c2-c2nc(C)cs2)ccn1 [Example 240, N-(4-(7-Cyano-3-(4-methylthiazol-2-yl)-1H-pyrrolo[3,2-b]pyridin-2-yl)pyridin-2-yl)acetamide] | > 15 | 0.594 |
| O=C(CNCCN1CCOCC1)Nc1cc(-c2[nH]c3cc(Cl)cnc3c2-c2ccc(F)cn2)ccn1 [Example 241, N-{4-[6-Chloro-3-(5-fluoropyridin-2-yl)-1H-pyrrolo[3,2-b]pyridin-2-yl]pyridin-2-yl}-2-{[2-(morpholin-4-yl)ethyl]amino}acetamide] | 3.67 | 0.004 |
| CCNc1cc(-c2[nH]c3cc(Cl)cnc3c2-c2ccc(OC)cn2)ccn1 [Example 242, 4-(6-Chloro-3-(5-methoxypyridin-2-yl)-1H-pyrrolo[3,2-b]pyridin-2-yl)-N-ethylpyridin-2-amine] | ≥ 15 | 0.033 |
| COc1ccc(-c2c(-c3ccnc(NCC(C)C)c3)[nH]c3cc(Cl)cnc23)nc1 [Example 243, 4-(6-Chloro-3-(5-methoxypyridin-2-yl)-1H-pyrrolo[3,2-b]pyridin-2-yl)-N-isobutylpyridin-2-amine] | ≥ 15 | 0.361 |
| O=C(CN1CCC(O)CC1)Nc1cc(-c2[nH]c3cc(Cl)cnc3c2-c2ccc(F)cn2)ccn1 [Example 244, N-(4-(6-Chloro-3-(5-fluoropyridin-2-yl)-1H-pyrrolo[3,2-b]pyridin-2-yl)pyridin-2-yl)-2-(4-hydroxypiperidin-1-yl)acetamide] | 7.82 | 0.003 |
| CN(C)C1CCN(CC(=O)Nc2cc(-c3[nH]c4cc(Cl)cnc4c3-c3ccc(F)cn3)ccn2)CC1 [Example 245, N-(4-(6-Chloro-3-(5-fluoropyridin-2-yl)-1H-pyrrolo[3,2-b]pyridin-2-yl)pyridin-2-yl)-2-(4-(dimethylamino)piperidin-1-yl)acetamide] | 4.07 | 0.002 |
| O=C(CN1CCN(CCO)CC1)Nc1cc(-c2[nH]c3cc(Cl)cnc3c2-c2ccc(F)cn2)ccn1 [Example 246, N-(4-(6-Chloro-3-(5-fluoropyridin-2-yl)-1H-pyrrolo[3,2-b]pyridin-2-yl)pyridin-2-yl)-2-(4-(2-hydroxyethyl)piperazin-1-yl)acetamide] | 5.99 | 0.001 |
| O=C(CN1CCNCC1)Nc1cc(-c2[nH]c3cc(Cl)cnc3c2-c2ccc(F)cn2)ccn1 [Example 247, N-(4-(6-Chloro-3-(5-fluoropyridin-2-yl)-1H-pyrrolo[3,2-b]pyridin-2-yl)pyridin-2-yl)-2-(piperazin-1-yl)acetamide] | ≥ 15 | 0.003 |
| CC(=O)N1CCN(CC(=O)Nc2cc(-c3[nH]c4cc(Cl)cnc4c3-c3ccc(F)cn3)ccn2)CC1 [Example 248, 2-(4-Acetylpiperazin-1-yl)-N-(4-(6-chloro-3-(5-fluoropyridin-2-yl)-1H-pyrrolo[3,2-b]pyridin-2-yl)pyridin-2-yl)acetamide] | 14.5 | 0.002 |
| COc1ccc(-c2c(-c3ccnc(NC(=O)CN4CCN(C)CC4)c3)[nH]c3cc(Cl)cnc23)nc1 [Example 249, N-(4-(6-Chloro-3-(5-methoxypyridin-2-yl)-1H-pyrrolo[3,2-b]pyridin-2-yl)pyridin-2-yl)-2-(4-methylpiperazin-1-yl)acetamide] | > 15 | 0.007 |
| COc1ccc(-c2c(-c3ccnc(NC(=O)CN4CCOCC4)c3)[nH]c3cc(Cl)cnc23)nc1 [Example 250, N-(4-(6-Chloro-3-(5-methoxypyridin-2-yl)-1H-pyrrolo[3,2-b]pyridin-2-yl)pyridin-2-yl)-2-morpholinoacetamide] | > 15 | 0.007 |
| CCN1CCN(CC(=O)Nc2cc(-c3[nH]c4cc(Cl)cnc4c3-c3ccc(OC)cn3)ccn2)CC1 [Example 251, N-(4-(6-Chloro-3-(5-methoxypyridin-2-yl)-1H-pyrrolo[3,2-b]pyridin-2-yl)pyridin-2-yl)-2-(4-ethylpiperazin-1-yl)acetamide] | > 15 | 0.005 |
| COc1ccc(-c2c(-c3ccnc(NC(=O)CN4CCN(CCO)CC4)c3)[nH]c3cc(Cl)cnc23)nc1 [Example 252, N-(4-(6-Chloro-3-(5-methoxypyridin-2-yl)-1H-pyrrolo[3,2-b]pyridin-2-yl)pyridin-2-yl)-2-(4-(2-hydroxyethyl)piperazin-1-yl)acetamide] | > 15 | 0.001 |
| CCOc1ccc(-c2c(-c3ccnc(NC(C)=O)c3)[nH]c3cc(Cl)cnc23)nc1 [Example 253, N-(4-(6-Chloro-3-(5-ethoxypyridin-2-yl)-1H-pyrrolo[3,2-b]pyridin-2-yl)pyridin-2-yl)acetamide] | > 15 | 0.004 |
| CC(=O)Nc1cc(-c2[nH]c3cc(Cl)cnc3c2-c2ccc(OC(C)C)cn2)ccn1 [Example 254, N-(4-(6-Chloro-3-(5-isopropoxypyridin-2-yl)-1H-pyrrolo[3,2-b]pyridin-2-yl)pyridin-2-yl)acetamide] | > 15 | 0.065 |
| CC(=O)Nc1cc(-c2[nH]c3cc(Cl)cnc3c2-c2cccc(OC(C)C)n2)ccn1 [Example 255, N-(4-(6-Chloro-3-(6-isopropoxypyridin-2-yl)-1H-pyrrolo[3,2-b]pyridin-2-yl)pyridin-2-yl)acetamide] | > 15 | 0.433 |

From patent US9708316B2 (BRISTOL-MYERS SQUIBB COMPANY, priority 2014, dated 2017)
